In patent US6096930A, “Herbicidal cyclohexane-1,3-dione derivatives and their preparation process” (Korea Research Institute of Chemical Technology, priority 1994, dated 2000):
Read-outs that look alike come from different tables or passages of the source.

What was measured:
Test in all cases: Herbicidal activity for paddy test
Type in all cases: in vivo
ORYSA = conditions: for plant injury at 2 g/ha: 0.002 kg/ha; for plant injury at 8 g/ha: 0.008 kg/ha; for plant injury at 31 g/ha: 0.031 kg/ha; for plant injury at 125 g/ha: 0.125 kg/ha; for plant injury at 500 g/ha: 0.500 kg/ha
From the text: (§1) The sterilized sandy loam soil is filled in test pot having a surface area of 348 cm^2 for upland test conditions or 115 cm^2 for paddy test species were planted in furrows.
(§2) The herbicidal activity data were taken visually by percent control, wherein 0 signifies no herbicidal effect and 100 signifies complete kill.

MOOVA = conditions: for pest or weed control at 2 g/ha: 0.002 kg/ha; for pest or weed control at 8 g/ha: 0.008 kg/ha; for pest or weed control at 31 g/ha: 0.031 kg/ha; for pest or weed control at 125 g/ha: 0.125 kg/ha; for pest or weed control at 500 g/ha: 0.500 kg/ha
From the text: as §1, §2

SAGPY = conditions: for pest or weed control at 2 g/ha: 0.002 kg/ha; for pest or weed control at 8 g/ha: 0.008 kg/ha; for pest or weed control at 31 g/ha: 0.031 kg/ha; for pest or weed control at 125 g/ha: 0.125 kg/ha; for pest or weed control at 500 g/ha: 0.500 kg/ha
From the text: as §1, §2

SCPJU = conditions: for pest or weed control at 2 g/ha: 0.002 kg/ha; for pest or weed control at 8 g/ha: 0.008 kg/ha; for pest or weed control at 31 g/ha: 0.031 kg/ha; for pest or weed control at 125 g/ha: 0.125 kg/ha; for pest or weed control at 500 g/ha: 0.500 kg/ha
From the text: as §1, §2

ECHOR = conditions: for pest or weed control at 2 g/ha: 0.002 kg/ha; for pest or weed control at 8 g/ha: 0.008 kg/ha; for pest or weed control at 31 g/ha: 0.031 kg/ha; for pest or weed control at 125 g/ha: 0.125 kg/ha; for pest or weed control at 500 g/ha: 0.500 kg/ha
From the text: as §1, §2

[1] = 3 Leaf, read-out: Herbicidal activity, ORYSA (3 Leaf)
[2] = seed, read-out: Herbicidal activity, ORYSA (seed)

| Structure (SMILES) | plant injury at 2 g/ha (ORYSA; [1]) | plant injury at 8 g/ha (ORYSA; [1]) | plant injury at 31 g/ha (ORYSA; [1]) | plant injury at 125 g/ha (ORYSA; [1]) | plant injury at 500 g/ha (ORYSA; [1]) | plant injury at 2 g/ha (ORYSA; [2]) | plant injury at 8 g/ha (ORYSA; [2]) | plant injury at 31 g/ha (ORYSA; [2]) | plant injury at 125 g/ha (ORYSA; [2]) | plant injury at 500 g/ha (ORYSA; [2]) | pest or weed control at 2 g/ha (MOOVA) | pest or weed control at 8 g/ha (MOOVA) | pest or weed control at 31 g/ha (MOOVA) | pest or weed control at 125 g/ha (MOOVA) | pest or weed control at 500 g/ha (MOOVA) | pest or weed control at 2 g/ha (SAGPY) | pest or weed control at 8 g/ha (SAGPY) | pest or weed control at 31 g/ha (SAGPY) | pest or weed control at 125 g/ha (SAGPY) | pest or weed control at 500 g/ha (SAGPY) | other results |
| --- | --- | --- | --- | --- | --- | --- | --- | --- | --- | --- | --- | --- | --- | --- | --- | --- | --- | --- | --- | --- | --- |
| CCC(=NOC)C1=C(O)CC(c2c(C)c(C)c3c(c2C)CC(C)(CC)C3)CC1=O (stereo not drawn) [Compound 11] | 0% | 0% | 0% | 30% | 80% | 0% | 0% | 30% | 100% | 100% | 0% | 0% | 0% | 30% | 50% | 0% | 0% | 0% | 0% | 0% | pest or weed control at 2 g/ha (SCPJU): 0%; pest or weed control at 8 g/ha (SCPJU): 0%; pest or weed control at 31 g/ha (SCPJU): 0%; pest or weed control at 125 g/ha (SCPJU): 0%; pest or weed control at 500 g/ha (SCPJU): 0%; pest or weed control at 2 g/ha (ECHOR): 0%; pest or weed control at 8 g/ha (ECHOR): 30%; pest or weed control at 31 g/ha (ECHOR): 70%; pest or weed control at 125 g/ha (ECHOR): 100%; pest or weed control at 500 g/ha (ECHOR): 100% |
| CCON=C(CC)C1=C(O)CC(c2c(C)c3c(c(C)c2Cl)CC(C)(C)C3)CC1=O (stereo not drawn) [Compound 22] | 0% | 0% | 0% | 20% | 100% | 0% | 0% | 100% | 100% | 100% | 0% | 0% | 0% | 0% | 60% | 0% | 0% | 0% | 0% | 0% | pest or weed control at 2 g/ha (SCPJU): 0%; pest or weed control at 8 g/ha (SCPJU): 0%; pest or weed control at 31 g/ha (SCPJU): 0%; pest or weed control at 125 g/ha (SCPJU): 0%; pest or weed control at 500 g/ha (SCPJU): 0%; pest or weed control at 2 g/ha (ECHOR): 0%; pest or weed control at 8 g/ha (ECHOR): 95%; pest or weed control at 31 g/ha (ECHOR): 100%; pest or weed control at 125 g/ha (ECHOR): 100%; pest or weed control at 500 g/ha (ECHOR): 100% |
| CCC(=NOC)C1=C(O)CC(c2c(C)c3c(c(C)c2Cl)CC(C)(C)C3)CC1=O (stereo not drawn) [Compound 21] | 0% | 0% | 0% | 80% | 100% | 20% | 100% | 100% | 100% | 100% | 0% | 30% | 50% | 60% | 70% | 0% | 0% | 0% | 0% | 0% | pest or weed control at 2 g/ha (SCPJU): 0%; pest or weed control at 8 g/ha (SCPJU): 0%; pest or weed control at 31 g/ha (SCPJU): 0%; pest or weed control at 125 g/ha (SCPJU): 0%; pest or weed control at 500 g/ha (SCPJU): 0%; pest or weed control at 2 g/ha (ECHOR): 40%; pest or weed control at 8 g/ha (ECHOR): 95%; pest or weed control at 31 g/ha (ECHOR): 100%; pest or weed control at 125 g/ha (ECHOR): 100%; pest or weed control at 500 g/ha (ECHOR): 100% |
| C=CCON=C(CC)C1=C(O)CC(c2c(C)c3c(c(C)c2Cl)CC(C)(C)C3)CC1=O (stereo not drawn) [Compound 23] | 0% | 0% | 0% | 0% | 60% | 0% | 10% | 100% | 100% | 100% | 0% | 0% | 0% | 0% | 0% | 0% | 0% | 0% | 0% | 0% | pest or weed control at 2 g/ha (SCPJU): 0%; pest or weed control at 8 g/ha (SCPJU): 0%; pest or weed control at 31 g/ha (SCPJU): 0%; pest or weed control at 125 g/ha (SCPJU): 0%; pest or weed control at 500 g/ha (SCPJU): 0%; pest or weed control at 2 g/ha (ECHOR): 0%; pest or weed control at 8 g/ha (ECHOR): 40%; pest or weed control at 31 g/ha (ECHOR): 100%; pest or weed control at 125 g/ha (ECHOR): 100%; pest or weed control at 500 g/ha (ECHOR): 100% |
| C=CCON=C(CC)C1=C(O)CC(c2c(C)c(C)c3c(c2Cl)CC(C)(C)C3)CC1=O (stereo not drawn) [Compound 40] | 0% | 0% | 0% | 0% | 0% | 0% | 0% | 0% | 0% | 100% | 0% | 0% | 0% | 0% | 0% | 0% | 0% | 0% | 0% | 0% | pest or weed control at 2 g/ha (SCPJU): 0%; pest or weed control at 8 g/ha (SCPJU): 0%; pest or weed control at 31 g/ha (SCPJU): 0%; pest or weed control at 125 g/ha (SCPJU): 0%; pest or weed control at 500 g/ha (SCPJU): 0%; pest or weed control at 2 g/ha (ECHOR): 0%; pest or weed control at 8 g/ha (ECHOR): 0%; pest or weed control at 31 g/ha (ECHOR): 0%; pest or weed control at 125 g/ha (ECHOR): 100%; pest or weed control at 500 g/ha (ECHOR): 100% |
| C=CCON=C(CC)C1=C(O)CC(c2c(C)c(C)c3c(c2C)CC(C)(C)C3)CC1=O (stereo not drawn) [Compound 3, 5-(2,2,4,6,7-Pentamethylindan-5-yl)-2-[1-(allyloxyimino)propyl]-3-hydroxycyclohex-2-en-1-one] | 0% | 0% | 0% | 10% | 100% | 0% | 10% | 100% | 100% | 100% | 0% | 0% | 0% | 0% | 0% | 0% | 0% | 0% | 0% | 0% | pest or weed control at 2 g/ha (SCPJU): 0%; pest or weed control at 8 g/ha (SCPJU): 0%; pest or weed control at 31 g/ha (SCPJU): 0%; pest or weed control at 125 g/ha (SCPJU): 0%; pest or weed control at 500 g/ha (SCPJU): 0%; pest or weed control at 2 g/ha (ECHOR): 0%; pest or weed control at 8 g/ha (ECHOR): 100%; pest or weed control at 31 g/ha (ECHOR): 100%; pest or weed control at 125 g/ha (ECHOR): 100%; pest or weed control at 500 g/ha (ECHOR): 100% |
| CCCC(=NOCC)C1=C(O)CC(c2c(C)c(C)c3c(c2C)CC(C)(C)C3)CC1=O (stereo not drawn) [Compound 7] | 0% | 0% | 0% | 20% | 65% | 0% | 20% | 100% | 100% | 100% | 0% | 0% | 0% | 0% | 0% | 0% | 0% | 0% | 0% | 40% | pest or weed control at 2 g/ha (SCPJU): 0%; pest or weed control at 8 g/ha (SCPJU): 0%; pest or weed control at 31 g/ha (SCPJU): 0%; pest or weed control at 125 g/ha (SCPJU): 0%; pest or weed control at 500 g/ha (SCPJU): 0%; pest or weed control at 2 g/ha (ECHOR): 95%; pest or weed control at 8 g/ha (ECHOR): 95%; pest or weed control at 31 g/ha (ECHOR): 100%; pest or weed control at 125 g/ha (ECHOR): 100%; pest or weed control at 500 g/ha (ECHOR): 100% |
